The target of one experiment is T1, PDE6 (Bos taurus, UniProt P11541+P23439).
T1 construct: PDE6 was isolated from bovine retina; from tissue; host or cells: bovine retina
T1 sequence (P11541 2-856 limits assumed): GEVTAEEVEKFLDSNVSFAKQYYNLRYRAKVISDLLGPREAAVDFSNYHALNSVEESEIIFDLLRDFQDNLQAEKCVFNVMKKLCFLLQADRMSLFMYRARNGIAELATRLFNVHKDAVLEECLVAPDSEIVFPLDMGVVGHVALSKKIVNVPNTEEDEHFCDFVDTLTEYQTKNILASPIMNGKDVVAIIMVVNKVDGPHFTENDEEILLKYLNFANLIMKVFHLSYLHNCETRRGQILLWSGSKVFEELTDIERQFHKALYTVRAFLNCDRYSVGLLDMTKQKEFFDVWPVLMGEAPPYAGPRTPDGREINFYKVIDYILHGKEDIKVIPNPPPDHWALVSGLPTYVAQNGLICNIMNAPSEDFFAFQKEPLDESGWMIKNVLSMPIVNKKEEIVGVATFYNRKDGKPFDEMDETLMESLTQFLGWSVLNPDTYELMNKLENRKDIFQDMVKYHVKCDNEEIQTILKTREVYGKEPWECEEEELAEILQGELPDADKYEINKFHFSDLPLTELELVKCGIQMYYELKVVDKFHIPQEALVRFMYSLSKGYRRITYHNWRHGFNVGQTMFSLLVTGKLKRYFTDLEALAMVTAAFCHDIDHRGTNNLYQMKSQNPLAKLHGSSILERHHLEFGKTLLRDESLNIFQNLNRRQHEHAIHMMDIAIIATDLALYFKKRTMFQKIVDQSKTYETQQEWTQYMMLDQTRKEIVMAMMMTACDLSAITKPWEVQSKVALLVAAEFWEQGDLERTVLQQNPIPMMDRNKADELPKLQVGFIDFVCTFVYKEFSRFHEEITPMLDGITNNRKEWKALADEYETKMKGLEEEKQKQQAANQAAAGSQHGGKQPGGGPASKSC
T1 sequence (P23439 2-850 limits assumed): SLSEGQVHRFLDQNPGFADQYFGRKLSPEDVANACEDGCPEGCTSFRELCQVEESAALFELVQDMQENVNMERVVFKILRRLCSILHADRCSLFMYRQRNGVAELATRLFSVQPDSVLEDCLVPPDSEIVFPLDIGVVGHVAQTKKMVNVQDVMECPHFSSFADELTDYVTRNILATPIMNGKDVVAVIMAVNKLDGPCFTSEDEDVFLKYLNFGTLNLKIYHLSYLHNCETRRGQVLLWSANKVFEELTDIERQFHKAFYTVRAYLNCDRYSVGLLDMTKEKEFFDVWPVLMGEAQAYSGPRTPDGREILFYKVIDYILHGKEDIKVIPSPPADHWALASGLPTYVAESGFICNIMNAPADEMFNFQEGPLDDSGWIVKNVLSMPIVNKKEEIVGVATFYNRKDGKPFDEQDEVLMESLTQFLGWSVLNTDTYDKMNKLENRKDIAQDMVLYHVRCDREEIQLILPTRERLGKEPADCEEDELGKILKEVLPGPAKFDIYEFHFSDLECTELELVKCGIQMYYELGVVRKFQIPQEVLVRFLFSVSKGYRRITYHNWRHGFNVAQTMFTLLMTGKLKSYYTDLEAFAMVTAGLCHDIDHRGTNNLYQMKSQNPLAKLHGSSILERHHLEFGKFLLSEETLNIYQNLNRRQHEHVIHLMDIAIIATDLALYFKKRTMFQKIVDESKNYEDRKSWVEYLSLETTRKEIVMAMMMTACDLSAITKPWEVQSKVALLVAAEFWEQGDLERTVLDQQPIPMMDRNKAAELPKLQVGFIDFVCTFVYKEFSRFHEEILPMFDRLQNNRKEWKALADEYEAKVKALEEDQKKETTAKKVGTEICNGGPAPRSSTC
Nature of the experiment: PDE6 inhibition, SPA-based cGMP hydrolysis assay. The class given is biochemical. The conditions noted are these: PDE6 isolated from bovine retina; geometric mean of at least 3 determinations.

The target of a further experiment is T2, recombinant human PDE9 (Homo sapiens, UniProt O76083).
T2 construct: made in house; host or cells: Sf9 insect cells (baculovirus)
Put plainly: PDE9 inhibition, SPA-based assay. The class given is biochemical. Conditions: Sf9 cells, geometric mean of at least 3 determinations.

Another experiment concerns the target recombinant human PDE10 (Homo sapiens, UniProt Q9Y233). Put plainly: PDE10 inhibition, SPA-based assay. Format: biochemical. Conditions: Sf9 cells, geometric mean of at least 3 determinations.
For experiment [1], the target named is T3, recombinant human PDE11A (Homo sapiens, UniProt Q9HCR9).
T3 construct: made in house; host or cells: Sf9 insect cells (baculovirus)
Nature of the experiment: PDE11A inhibition, SPA-based cGMP hydrolysis assay. The class given is biochemical.

For a further experiment, the target named is T4, recombinant human PDE7 (Homo sapiens, UniProt Q13946).
T4 construct: made in house; host or cells: Sf9 insect cells (baculovirus)
Put plainly: PDE7 inhibition, SPA-based assay. Format: biochemical. The conditions noted are these: Sf9 cells, geometric mean of at least 3 determinations.

Another experiment concerns epididymal spermatozoa. Put plainly: Capacitation analysis, chlorotetracycline (CTC) assay. Format: cell-based, mouse. The conditions noted are these: for number of capacitated sperm: FIG. 6, P<0.001; for % capacitated sperm: mean ± SEM. The text has this:
Tissue sections were examined by immunohistochemistry (IHC) using a specific anti-PDE11 antibody. KO mice were generated using standard techniques, and PDE11 ablation confirmed by Southern blotting as well as reverse transcriptase polymerase chain reaction (RT-PCR) and IHC analysis of the testis. Fresh epididymal sperm were collected from adult mice and tested for capacitation (CP) using a chlorotetracycline assay before and after treatment with ATP—an inducer of CP.
For capacitation analyses, fresh epididymal spermatozoa were collected from adult (16 week-old) mice into Tyrodes media, and tested in triplicate using a chlorotetracycline (CTC) assay (Fraser, L. R. & Herod, J. E. Expression of capacitation-dependent changes in chlortetracycline fluorescence patterns in mouse spermatozoa requires a suitable glycolysable substrate. J. Reprod. Fert., 1990; 88(2): 611-21) both ± pre-treatment with ATP—an inducer of capacitation—to determine the functional state of the spermatozoa.
[…] The extent of capacitation was measured using chlorotetracycline (CTC), 750 μM for 15 min at 37° C. The patterns of CTC fluorescence were observed under microscopy (Reference: Fraser L R et al., 1990, J. Reprod. Fert.—see above). Patterns reflected the functional state of spermatozoa, i.e. capacitated, uncapacitated and acrosome loss.

Experiment [2] has as its target T3, recombinant human PDE11A. Conditions: substrate hydrolysis by recombinant human PDE11A; cited from earlier work.
The next experiment concerns the target T5, recombinant human PDE8 (Homo sapiens, UniProt O60658).
T5 construct: made in house; host or cells: Sf9 insect cells (baculovirus)
Put plainly: PDE8 inhibition, SPA-based assay. The class given is biochemical. Conditions: Sf9 cells, geometric mean of at least 3 determinations.

Structures are written as SMILES. Counter-ions that a name gives are not always drawn. Like-named read-outs stand apart in the source and are kept apart here. Bounds are passed on as bounds.

recombinant human PDE10, sequence (Q9Y233 290-1055 limits assumed): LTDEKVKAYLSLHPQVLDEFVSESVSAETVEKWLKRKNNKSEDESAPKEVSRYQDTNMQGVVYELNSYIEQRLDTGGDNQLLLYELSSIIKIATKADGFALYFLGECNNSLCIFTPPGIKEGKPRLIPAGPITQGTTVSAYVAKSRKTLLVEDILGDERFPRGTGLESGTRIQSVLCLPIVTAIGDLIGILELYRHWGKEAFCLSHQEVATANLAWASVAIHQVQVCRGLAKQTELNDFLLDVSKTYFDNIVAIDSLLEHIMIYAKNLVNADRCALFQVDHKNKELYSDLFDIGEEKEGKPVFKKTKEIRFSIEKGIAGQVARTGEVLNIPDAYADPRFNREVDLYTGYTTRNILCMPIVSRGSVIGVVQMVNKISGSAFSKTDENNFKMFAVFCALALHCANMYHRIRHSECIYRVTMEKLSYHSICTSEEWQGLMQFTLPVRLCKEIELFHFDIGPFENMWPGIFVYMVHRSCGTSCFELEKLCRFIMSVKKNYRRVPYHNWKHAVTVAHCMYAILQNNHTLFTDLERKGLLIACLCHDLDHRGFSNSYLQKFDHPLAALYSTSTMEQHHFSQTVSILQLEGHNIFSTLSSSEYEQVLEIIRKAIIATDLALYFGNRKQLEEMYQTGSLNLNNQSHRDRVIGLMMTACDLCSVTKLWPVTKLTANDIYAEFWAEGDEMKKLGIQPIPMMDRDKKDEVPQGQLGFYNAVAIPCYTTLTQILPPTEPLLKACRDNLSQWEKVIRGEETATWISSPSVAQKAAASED
T4 sequence (Q13946 whole entry): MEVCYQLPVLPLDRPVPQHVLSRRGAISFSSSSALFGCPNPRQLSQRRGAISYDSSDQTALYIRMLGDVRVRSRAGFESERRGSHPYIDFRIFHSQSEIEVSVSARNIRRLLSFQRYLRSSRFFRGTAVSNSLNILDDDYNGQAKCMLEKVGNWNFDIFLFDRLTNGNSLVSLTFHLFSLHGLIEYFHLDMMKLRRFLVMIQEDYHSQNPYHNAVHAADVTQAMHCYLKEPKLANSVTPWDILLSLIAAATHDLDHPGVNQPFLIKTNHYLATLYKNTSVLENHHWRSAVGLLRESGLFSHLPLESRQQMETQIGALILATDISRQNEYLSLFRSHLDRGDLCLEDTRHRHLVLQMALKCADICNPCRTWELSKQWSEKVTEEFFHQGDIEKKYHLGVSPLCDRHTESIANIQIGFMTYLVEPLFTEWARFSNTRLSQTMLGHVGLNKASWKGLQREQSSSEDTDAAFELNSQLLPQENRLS
T3 sequence (Q9HCR9 445-933): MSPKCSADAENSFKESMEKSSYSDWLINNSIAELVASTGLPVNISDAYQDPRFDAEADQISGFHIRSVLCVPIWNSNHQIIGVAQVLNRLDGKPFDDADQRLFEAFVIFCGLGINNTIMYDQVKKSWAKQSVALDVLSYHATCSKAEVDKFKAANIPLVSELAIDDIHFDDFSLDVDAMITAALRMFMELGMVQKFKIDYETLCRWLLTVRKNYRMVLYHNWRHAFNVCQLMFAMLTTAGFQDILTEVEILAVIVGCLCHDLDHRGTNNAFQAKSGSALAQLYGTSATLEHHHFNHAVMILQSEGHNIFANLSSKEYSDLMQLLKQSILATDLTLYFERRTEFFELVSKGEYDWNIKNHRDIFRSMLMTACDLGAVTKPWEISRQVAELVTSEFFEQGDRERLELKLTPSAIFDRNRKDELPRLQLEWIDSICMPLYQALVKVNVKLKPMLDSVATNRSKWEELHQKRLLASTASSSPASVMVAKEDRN
T2 sequence (O76083 whole entry): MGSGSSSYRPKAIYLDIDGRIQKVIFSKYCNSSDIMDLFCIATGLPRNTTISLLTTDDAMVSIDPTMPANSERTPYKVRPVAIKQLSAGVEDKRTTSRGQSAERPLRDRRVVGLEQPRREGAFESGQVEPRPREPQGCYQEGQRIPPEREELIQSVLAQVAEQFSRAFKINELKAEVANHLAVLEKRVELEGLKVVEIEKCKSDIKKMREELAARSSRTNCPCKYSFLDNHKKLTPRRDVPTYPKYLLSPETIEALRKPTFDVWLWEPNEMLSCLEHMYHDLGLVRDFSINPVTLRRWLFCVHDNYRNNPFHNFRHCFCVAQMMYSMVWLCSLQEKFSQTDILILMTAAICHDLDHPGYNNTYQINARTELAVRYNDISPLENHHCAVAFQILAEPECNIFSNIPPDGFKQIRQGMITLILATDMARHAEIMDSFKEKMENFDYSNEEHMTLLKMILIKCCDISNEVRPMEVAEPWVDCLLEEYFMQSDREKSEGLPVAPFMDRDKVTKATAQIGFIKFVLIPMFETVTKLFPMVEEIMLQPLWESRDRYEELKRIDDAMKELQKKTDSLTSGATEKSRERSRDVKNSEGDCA
T5 sequence (O60658 whole entry): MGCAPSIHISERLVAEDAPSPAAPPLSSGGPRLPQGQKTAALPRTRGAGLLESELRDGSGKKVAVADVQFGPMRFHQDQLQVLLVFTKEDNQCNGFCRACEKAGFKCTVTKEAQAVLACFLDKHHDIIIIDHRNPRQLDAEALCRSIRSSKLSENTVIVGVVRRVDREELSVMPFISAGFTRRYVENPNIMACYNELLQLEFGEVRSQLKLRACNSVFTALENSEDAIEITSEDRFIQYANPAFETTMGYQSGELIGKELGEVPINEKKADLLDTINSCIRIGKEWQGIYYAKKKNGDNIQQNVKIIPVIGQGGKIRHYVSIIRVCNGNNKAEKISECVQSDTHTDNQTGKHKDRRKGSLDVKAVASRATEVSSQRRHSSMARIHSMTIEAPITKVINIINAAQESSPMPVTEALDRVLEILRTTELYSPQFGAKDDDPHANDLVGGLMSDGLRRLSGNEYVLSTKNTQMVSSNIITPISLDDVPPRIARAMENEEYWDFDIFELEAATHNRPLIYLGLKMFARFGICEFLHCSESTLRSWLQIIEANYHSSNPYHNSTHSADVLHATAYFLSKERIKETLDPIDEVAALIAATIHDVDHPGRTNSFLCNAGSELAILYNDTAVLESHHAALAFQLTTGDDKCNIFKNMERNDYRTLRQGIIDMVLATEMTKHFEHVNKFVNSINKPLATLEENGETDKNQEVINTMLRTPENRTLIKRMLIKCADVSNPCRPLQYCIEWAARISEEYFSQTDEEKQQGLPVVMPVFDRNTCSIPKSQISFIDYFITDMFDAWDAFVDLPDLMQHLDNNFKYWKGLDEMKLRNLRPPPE

Turning to `Clc1ccc2nc(-n3ccnc3)nc(NCc3ccccc3)c2c1` [UK-235,187, 6-Chloro-2-(1H-imidazol-1-yl)-N-(phenylmethyl)-,4-quinazolinamine, dihydrochloride], the half-inhibitory concentration (IC50) against PDE6 was 1 µM; on recombinant human PDE9, above 100 µM; on recombinant human PDE10, above 100 µM; on recombinant human PDE11A [1] (recombinant human, Sf9 cells, 69 nM cGMP, geometric mean of at least 3 determinations, read-out: IC50 PDE11A) it was 0.0466 µM.

Take `CCCc1nn(C)c2c(=O)[nH]c(-c3cc(S(=O)(=O)N4CCN(C)CC4)ccc3OCC)nc12` [Sildenafil, 5-[2-ethoxy-5-(4-methyl-1-piperazinylsulphonyl)phenyl]-1-methyl-3-n-propyl-1,6-dihydro-7H-pyrazolo[4,3-d]pyrimidin-7-one]: the IC50 on recombinant human PDE7 was found to be 19.7 µM.

For `Nc1ncnc2c1ncn2[C@@H]1O[C@H](COP(=O)(O)OP(=O)(O)OP(=O)(O)O)[C@@H](O)[C@H]1O` [ATP, adenosine-5′-triphosphate], the “number of capacitated sperm” value in the experiment with epididymal spermatozoa (ATP 1.0 mM, spermatozoa from PDE11 KO mice only) is “significantly increased”; with epididymal spermatozoa (ATP 2.5 mM, all murine spermatozoa samples, 1 hr incubation), “significantly increased”. Also, in the experiment with epididymal spermatozoa (PDE11 knockout and wild type samples, after 1 hr incubation), the “number of capacitated murine spermatozoa” value is “significantly increased”. For the same molecule, the “% capacitated sperm” value was determined as 45.9 ± 7.0% with epididymal spermatozoa (Table 2, PDE11 KO (−/−) mice, pre-treatment +1mM ATP, n = 3 animals); 73.9 ± 5.6% in the experiment with epididymal spermatozoa (Table 2, PDE11 KO (−/−) mice, pre-treatment +2.5 mM ATP, n = 3 animals); 41.4 ± 8.2% in the experiment on epididymal spermatozoa (Table 2, Wild-type (+/+) mice, pre-treatment +1mM ATP, n = 3 animals); 73.5 ± 5.1% with epididymal spermatozoa (Table 2, Wild-type (+/+) mice, pre-treatment +2.5 mM ATP, n = 3 animals); 48.4 ± 4.0% in the experiment with epididymal spermatozoa (Table 3, PDE11 KO (−/−) mice, pre-treatment +1 mM ATP, n = 4); 77.6 ± 3.8% in the experiment with epididymal spermatozoa (Table 3, PDE11 KO (−/−) mice, pre-treatment +2.5 mM ATP, n = 4). Besides, the “% capacitated sperm” value in the experiment on epididymal spermatozoa (Table 3, Wild-type (+/+) mice, pre-treatment +1 mM ATP, n = 4) stood at 47.1 ± 5.1%; with epididymal spermatozoa (Table 3, Wild-type (+/+) mice, pre-treatment +2.5 mM ATP, n = 4), 78.4 ± 3.3%.

For the molecule `Nc1nc2c(ncn2[C@@H]2O[C@@H]3COP(=O)(O)O[C@H]3[C@H]2O)c(=O)[nH]1` [cGMP, cyclic guanine 3′,5′-monophosphate], the Km at recombinant human PDE11A [2] is 0.52 µM.

On to `O=C(O)C1CCN(c2nc(NCc3ccc4c(c3)OCO4)c3cc(Cl)ccc3n2)CC1` [Compound E4021, 1-[4-[(1,3-benzodioxol-5-ylmethyl)amino]-6-chloro-2-quinazolinyl]-4-piperidinecarboxylic acid, monohydrochloride], for which the IC50 against PDE6 was 0.0047 µM; on recombinant human PDE7, above 100 µM; on recombinant human PDE8 it was above 100 µM; on recombinant human PDE9, above 100 µM; on recombinant human PDE10, above 100 µM; at recombinant human PDE11A [1], 0.572 µM.

Take `CN1CC(=O)N2[C@H](c3ccc4c(c3)OCO4)c3[nH]c4ccccc4c3C[C@@H]2C1=O` [IC351, (6R,12aR)-6-(1,3-benzodioxol-5-yl)-2,3,6,7,12,12a-hexahydro-2-methyl-pyrazino[1′,2′: 1,6]pyrido[3,4-b]indole-1,4-dione]: the half-inhibitory concentration (IC50) on PDE6 is 1.5 µM; at recombinant human PDE7 it was above 100 µM; on recombinant human PDE8 it was above 100 µM; on recombinant human PDE9, above 100 µM; on recombinant human PDE10, above 100 µM.

The values are drawn from patent US20030229002A1, “Use of agents that modulate PDE11A activity” (Pfizer Inc., priority 2002, published 2003).
